This note sets out measurements from patent US5543392A, “Digestive tract cell activating agent of EGF and lactoferrin” (Morinaga Milk Industry Co., Ltd., priority 1992, dated 1996).

Assay [1] concerns IEC18 cells. The assay is described as follows: Test 3: proliferation of small intestine epithelial cells (cell count by hemocytometer). Type of assay: cell-based, rat. The following applies: single addition of 10 ng/ml EGF; ten days culture; versus control group with no addition. The method, then: ICE18 cells (the same ones as in the Test 1) were inoculated onto a 24-well culture plate by 5,000 cells per well, and were cultured for ten days with 1% FBS DMEM (0.5 ml) containing the following test subjects. During this test period, the medium was replaced on the third and the sixth days, and the number of cells was measured on the third, the sixth and the tenth days. The number of cells was counted by a hemocytometer after treating the cells with 0.25% trypsin solution and suspending them in the solution.
The test subjects included a sample added with nothing, a sample added with 10 ng/ml EGF, a sample added with 50 μg/ml bLf or bLf-Hy, and a sample added with 10 ng/ml EGF and 50 μg/ml bLf or bLf-Hy.

For assay [2], the system named is IEC18 cells. In words: Test 1: DNA synthesis acceleration activity of EGF (3H-thymidine incorporation). Type of assay: cell-based, rat. The following applies: for Quantity of incorporated 3H thymidine, average value (n = 4): 18 h, 1% FBS-DMEM. Here is the method:
This test was carried out to determine an optimum concentration for DNA synthesis acceleration activity of EGF relative to small intestine epithelial cells.
IEC18 cells (purchased from the American Type Culture Collection) which are epithelial crypt-cells of rat small intestine were inoculated into a 24-well culture plate by 10,000 cells per hole and cultured with Dulbecco modified Eagle's medium containing 10% fetal bovine serum (hereinafter abbreviated as "10% FBS-DMEM") until the cells became confluence (1 ml of medium was used per well). Then, the medium was replaced with 1% FBS-DMEM culture was conducted for another three days to introduce the cell cycle into the resting phase. The medium was replaced with of 1% FBS-DMEM (0.5 ml) containing EGF at various concentrations and culture was conducted for 18 hours. Then, the medium was replaced with DME (0.35 ml) containing ^3 H-thymidine (tritium labeling: thymidine 1 micro curie/ml), the cultuure was conducted for another two hours. The result cells were rinsed twice with phosphate-buffered saline [PBS (-), 2 ml], then, ice-cooled 5% trifluoroacetic acid (5% TFA, 2 ml) was added. This was stored in a refrigerator for an hour. The cells were washed twice with 5% TFA (2 ml) and 1N NaOH (0.4 ml) was added. By holding this at 37° C. for an hour, the cells were dissolved. Then, the solution was neutralized by adding 6N HCl (0.08 ml), and therefore, the quantity of ^3 H-thymidine incorporated into DNA was measured by means of a liquid scintillation counter.
(In general: Dividing cells build labelled thymidine or BrdU into new DNA.)

Consider “EGF: Commercially available mouse submaxillary gland originating EGF (manufactured by Takara Shuzo Company) (NSYPGCPSSYDGYCLNGGVCMHIESLDSYTCNCVIGYSGDRCQTRDLRWWELR; not fully specified; Epidermal growth factor; UniProt P01132 977-1029, looked up)”, for which, in the assay on IEC18 cells [1], the “number of cells (FIGS. 3 and 4)” value is given as “absence of effect”. Besides, the “Quantity of incorporated 3H thymidine, average value (n = 4)” value in the assay with IEC18 cells [2] (EGF concentration 0.08 ng/ml) is given as 17874 cpm; in the assay on IEC18 cells [2] (EGF concentration 0.2 ng/ml (so in the source)), 25398 cpm; with IEC18 cells [2] (EGF concentration 0.4 ng/ml), 19644 cpm; in the assay on IEC18 cells [2] (EGF concentration 10.0 ng/ml), 26152 cpm; with IEC18 cells [2] (EGF concentration 50.0 ng/ml), 22665 cpm. For the same substance, in the assay on IEC18 cells [2] (IEC18 cells), the “optimum working concentration of EGF for DNA synthesis” value turned out to be 10 ng/mL.
